# Laboratory results taken from patent US20250059198A1, “BRM DEGRADING COMPOUNDS AND ASSOCIATED METHODS OF USE” (Arvinas Operations, Inc., priority 2021, published 2025).
# Target: T1, BRM (Homo sapiens, UniProt P51531)
# T1 construct: Western Blot Screen of BRM Degradation in SW1573 Cells; endogenous in cells; host or cells: SW1573 cells
# Test: BRM degradation (Dmax and DC50) in SW1573 cells, Western blot screen / In-Cell Western screen
# Format: cell-based
# Settings: overnight (18-20 hours) treatment; for Dmax: read-out: Dmax (%)** (% degraded)
# How it was run: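 SW1573 cells were treated with compound for 18–20 h (final 0.1% DMSO). BRM was quantified either by Western blot of RIPA lysates or by fixed-cell In-Cell Western (LI-COR, 800/680 nm), each normalised to alpha-tubulin, giving Dmax and DC50.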
# T1 sequence (P51531 whole entry): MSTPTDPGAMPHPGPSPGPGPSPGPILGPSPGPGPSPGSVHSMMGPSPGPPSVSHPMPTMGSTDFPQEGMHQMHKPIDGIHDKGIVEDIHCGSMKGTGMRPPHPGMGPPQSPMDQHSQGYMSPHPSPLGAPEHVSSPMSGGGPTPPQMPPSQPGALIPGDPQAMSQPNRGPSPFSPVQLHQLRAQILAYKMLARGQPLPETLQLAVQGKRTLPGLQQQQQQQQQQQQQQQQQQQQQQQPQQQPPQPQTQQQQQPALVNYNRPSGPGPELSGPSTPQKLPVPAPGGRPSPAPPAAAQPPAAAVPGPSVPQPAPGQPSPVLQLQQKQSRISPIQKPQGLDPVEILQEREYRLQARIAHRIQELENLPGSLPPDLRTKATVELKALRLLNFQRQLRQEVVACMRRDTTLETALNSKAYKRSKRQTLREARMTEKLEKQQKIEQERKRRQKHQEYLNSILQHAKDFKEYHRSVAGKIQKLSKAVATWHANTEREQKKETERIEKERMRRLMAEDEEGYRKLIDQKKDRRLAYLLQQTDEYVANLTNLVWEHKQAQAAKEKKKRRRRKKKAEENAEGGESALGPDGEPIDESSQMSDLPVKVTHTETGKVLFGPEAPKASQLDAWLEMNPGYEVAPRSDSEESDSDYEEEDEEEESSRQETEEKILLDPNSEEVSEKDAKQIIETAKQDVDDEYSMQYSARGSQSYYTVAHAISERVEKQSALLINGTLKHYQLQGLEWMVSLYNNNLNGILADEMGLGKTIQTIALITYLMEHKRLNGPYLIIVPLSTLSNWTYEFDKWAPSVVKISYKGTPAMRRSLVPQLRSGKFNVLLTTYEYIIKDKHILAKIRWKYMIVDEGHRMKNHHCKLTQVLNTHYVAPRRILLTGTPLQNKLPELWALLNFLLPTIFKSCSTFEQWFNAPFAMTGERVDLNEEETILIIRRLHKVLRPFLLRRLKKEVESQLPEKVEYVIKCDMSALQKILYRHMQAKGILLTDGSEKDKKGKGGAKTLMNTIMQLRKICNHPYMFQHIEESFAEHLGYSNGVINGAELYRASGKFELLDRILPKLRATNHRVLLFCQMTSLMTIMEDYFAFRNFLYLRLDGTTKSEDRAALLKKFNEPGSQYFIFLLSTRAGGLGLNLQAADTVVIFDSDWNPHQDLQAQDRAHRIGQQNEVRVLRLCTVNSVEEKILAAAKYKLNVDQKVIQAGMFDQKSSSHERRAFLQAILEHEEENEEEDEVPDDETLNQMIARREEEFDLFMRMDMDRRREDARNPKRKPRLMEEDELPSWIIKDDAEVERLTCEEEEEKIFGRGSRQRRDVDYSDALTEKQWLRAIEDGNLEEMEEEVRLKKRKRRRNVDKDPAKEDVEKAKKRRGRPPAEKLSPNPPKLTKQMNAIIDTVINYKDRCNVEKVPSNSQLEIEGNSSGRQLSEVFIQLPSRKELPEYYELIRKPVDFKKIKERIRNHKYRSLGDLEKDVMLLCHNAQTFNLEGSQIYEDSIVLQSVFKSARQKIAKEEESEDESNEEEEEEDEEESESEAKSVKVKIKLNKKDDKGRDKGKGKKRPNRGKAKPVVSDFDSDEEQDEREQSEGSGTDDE
Compound,DC50,Dmax
"Cc1ncsc1-c1ccc([C@H](C)NC(=O)[C@@H]2C[C@@H](O)CN2C(=O)[C@@H](c2cc(N3CCC(CN4CCC5(CC4)CC(N4CCO[C@H](C(C)(C)N6C7CCC6CN(c6cc(-c8ccccc8O)nnc6N)C7)C4)C5)CC3)no2)C(C)C)cc1 [Compound 94, (2S,4R)-1-[(2R)-2-{3-[4-({2-[(2S)-2-(2-{3-[3-amino-6-(2-hydroxyphenyl)pyridazin-4-yl]-3,8-diazabicyclo[3.2.1]octan-8-yl}propan-2-yl)morpholin-4-yl]-7-azaspiro[3.5]nonan-7-yl}methyl)piperidin-1-yl]-1,2-oxazol-5-yl}-3-methylbutanoyl]-4-hydroxy-N-[(1S)-1-[4-(4-methyl-1,3-thiazol-5-yl)phenyl]ethyl]pyrrolidine-2-carboxamide]",2.5 to 10 nM,> 75%
"Cc1ncsc1-c1ccc([C@H](C)NC(=O)[C@@H]2C[C@@H](O)CN2C(=O)[C@@H](c2cc(N3CCC(CN4CCC(O[C@H]5C[C@H](N6CCC([C@H](C)n7cc(-c8cc(-c9ccccc9O)nnc8N)cn7)CC6)C5)CC4)CC3)no2)C(C)C)cc1 [Compound 9, (2S,4R)-4-hydroxy-N-[(1S)-1-[4-(4-methyl-1,3-thiazol-5-yl)phenyl]ethyl]-1-[(2R)-3-methyl-2-{3-[4-({4-[(1r,3r)-3-{4-[(1S)-1-{4-[3-amino-6-(2-hydroxyphenyl)pyridazin-4-yl]-1H-pyrazol-1-yl}ethyl]piperidin-1-yl}cyclobutoxy]piperidin-1-yl}methyl)piperidin-1-yl]-,2-oxazol-5-yl}butanoyl]pyrrolidine-2-carboxamide]",< 2.5 nM,> 75%
"CC(C)[C@H](C(=O)N1C[C@H](O)C[C@H]1C(=O)N[C@@H](C)c1ccc(-c2ccnn2C)cc1)c1cc(N2CCC(OC3CCN(CC4CC(N5CCC([C@H](C)n6cc(C#Cc7cc(-c8ccccc8O)nnc7N)cn6)CC5)C4)CC3)CC2)no1 (stereo partly drawn) [Compound 111, (2S,4R)-1-[(2S)-2-{3-[4-({1-[(3-{4-[(1S)-1-(4-{2-[3-amino-6-(2-hydroxyphenyl)pyridazin-4-yl]ethynyl}-1H-pyrazol-1-yl)ethyl]piperidin-1-yl}cyclobutyl)methyl]piperidin-4-yl}oxy)piperidin-1-yl]-1,2-oxazol-5-yl}-3-methylbutanoyl]-4-hydroxy-N-[(1S)-1-[4-(1-methyl-1H-pyrazol-5-yl)phenyl]ethyl]pyrrolidine-2-carboxamide]",≥ 30 nM,–
"CC(C)[C@@H](C(=O)N1C[C@H](O)C[C@H]1C(=O)N[C@@H](C)c1ccc(C#N)cc1)c1cc(N2CCC(CN3CCC(O[C@H]4C[C@H](Oc5cc(N6CC7CC(C6)N7c6cc(-c7ccccc7O)nnc6N)ccn5)C4)CC3)CC2)no1 [Compound 26, (2S,4R)-N-[(1S)-1-(4-cyanophenyl)ethyl]-4-hydroxy-1-[(2R)-3-methyl-2-{3-[4-({4-[(1r,3r)-3-[(4-{6-[3-amino-6-(2-hydroxyphenyl)pyridazin-4-yl]-3,6-diazabicyclo[3.1.1]heptan-3-yl}pyridin-2-yl)oxy]cyclobutoxy]piperidin-1-yl}methyl)piperidin-1-yl]-1,2-oxazol-5-yl}butanoyl]pyrrolidine-2-carboxamide]",2.5 to 10 nM,> 75%
"Cc1ncsc1-c1ccc([C@H](C)NC(=O)C2C[C@@H](O)CN2C(=O)[C@@H](c2cc(N3CCC(CN4CC[C@@H](Oc5cc(N6C7CCC6CN(c6cc(-c8ccccc8O)nnc6N)C7)ccn5)[C@@H](F)C4)CC3)no2)C(C)C)cc1 (stereo in doubt) [Compound 49, (2S,4R)-1-[(2R)-2-[3-(4-{[(3S,4R)-4-[(4-{3-[3-amino-6-(2-hydroxyphenyl)pyridazin-4-yl]-3,8-diazabicyclo[3.2.1]octan-8-yl}pyridin-2-yl)oxy]-3-fluoropiperidin-1-yl]methyl}piperidin-1-yl)-1,2-oxazol-5-yl]-3-methylbutanoyl]-4-hydroxy-N-[(1S)-1-[4-(4-methyl-1,3-thiazol-5-yl)phenyl]ethyl]pyrrolidine-2-carboxamide]",< 2.5 nM,> 75%
"Cc1ncsc1-c1ccc([C@H](C)NC(=O)[C@H]2C[C@@H](O)CN2C(=O)[C@@H](c2cc(N3CCC(CN4CCC(O[C@H]5C[C@H](OC(=O)N6CCN(c7cc(-c8ccccc8O)nnc7N)CC6)C5)CC4)CC3)no2)C(C)C)cc1 [Compound 45, (1rs,3rs)-3-({1-[(1-{5-[(2R)-1-[(2S,4R)-4-hydroxy-2-{[(1S)-1-[4-(4-methyl-1,3-thiazol-5-yl)phenyl]ethyl]carbamoyl}pyrrolidin-1-yl]-3-methyl-1-oxobutan-2-yl]-1,2-oxazol-3-yl}piperidin-4-yl)methyl]piperidin-4-yl}oxy)cyclobutyl 4-[3-amino-6-(2-hydroxyphenyl)pyridazin-4-yl]piperazine-1-carboxylate]",< 2.5 nM,> 75%
"CC(C)[C@@H](C(=O)N1C[C@H](O)C[C@H]1C(=O)N[C@@H](C)c1ccc(-c2ccnn2C)cc1)c1cc(N2CCC(CN3CCC(O[C@H]4C[C@H](N5CCC(C(C)n6ncc(C#Cc7cc(-c8ccccc8O)nnc7N)c6F)CC5)C4)CC3)CC2)no1 (stereo partly drawn) [Compound 84, (2S,4R)-4-hydroxy-N-[(1S)-1-[4-(1-methyl-1H-pyrazol-5-yl)phenyl]ethyl]-1-[(2R)-3-methyl-2-{3-[4-({4-[(1r,3r)-3-{4-[1-(4-{2-[3-amino-6-(2-hydroxyphenyl)pyridazin-4-yl]ethynyl}-5-fluoro-1H-pyrazol-1-yl)ethyl]piperidin-1-yl}cyclobutoxy]piperidin-1-yl}methyl)piperidin-1-yl]-1,2-oxazol-5-yl}butanoyl]pyrrolidine-2-carboxamide]",< 2.5 nM,> 75%
"Cc1ncsc1-c1ccc([C@H](C)NC(=O)[C@@H]2C[C@@H](O)CN2C(=O)[C@@H](c2cc(N3CCC(CN4CCC(O[C@H]5C[C@H](N6CCC(Cc7cn(-c8cc(-c9ccccc9O)nnc8N)cn7)CC6)C5)CC4)CC3)no2)C(C)C)cc1 [Compound 130, (2S,4R)-4-hydroxy-N-[(1S)-1-[4-(4-methyl-1,3-thiazol-5-yl)phenyl]ethyl]-1-[(2R)-3-methyl-2-{3-[4-({4-[(1r,3r)-3-[4-({1-[3-amino-6-(2-hydroxyphenyl)pyridazin-4-yl]-1H-imidazol-4-yl}methyl)piperidin-1-yl]cyclobutoxy]piperidin-1-yl}methyl)piperidin-1-yl]-1,2-oxazol-5-yl}butanoyl]pyrrolidine-2-carboxamide]",10 to 30 nM,> 75%
"CC(C)[C@@H](C(=O)N1C[C@H](O)C[C@H]1C(=O)N[C@@H](C)c1ccc(C#N)cc1)c1cc(N2CCC(C(=O)N3CCC(O[C@H]4C[C@H](Oc5cc(N6C7CCC6CN(c6cc(-c8ccccc8O)nnc6N)C7)ccn5)C4)CC3)CC2)no1 [Compound 138, (2S,4R)-N-[(1S)-1-(4-cyanophenyl)ethyl]-4-hydroxy-1-[(2R)-3-methyl-2-[3-(4-{4-[(1r,3r)-3-[(4-{3-[3-amino-6-(2-hydroxyphenyl)pyridazin-4-yl]-3,8-diazabicyclo[3.2.1]octan-8-yl}pyridin-2-yl)oxy]cyclobutoxy]piperidine-1-carbonyl}piperidin-1-yl)-1,2-oxazol-5-yl]butanoyl]pyrrolidine-2-carboxamide]",< 2.5 nM,> 75%
